Conditions: Hot wire method

F/C=C/C(F)(F)F [trans-1,3,3,3-tetrafluoropropene]
Conditions | thermal conductivity [W/m/K]
312.25 K, 581 kPa, Gas | 0.01478
312.31 K, 325 kPa, Gas | 0.01497
312.4 K, 200 kPa, Gas | 0.01456
312.41 K, 431 kPa, Gas | 0.01481
312.43 K, 101 kPa, Gas | 0.0144
312.48 K, 326 kPa, Gas | 0.01471
312.57 K, 582 kPa, Gas | 0.01477
312.62 K, 200 kPa, Gas | 0.0149
312.73 K, 430 kPa, Gas | 0.01467
312.8 K, 102 kPa, Gas | 0.01504
312.83 K, 325 kPa, Gas | 0.01474
312.92 K, 584 kPa, Gas | 0.01483
312.98 K, 200 kPa, Gas | 0.01488
313.1 K, 428 kPa, Gas | 0.01481
313.2 K, 102 kPa, Gas | 0.01509
313.2 K, 325 kPa, Gas | 0.01472
313.27 K, 585 kPa, Gas | 0.01483
313.39 K, 200 kPa, Gas | 0.01487
313.49 K, 429 kPa, Gas | 0.01476
313.6 K, 325 kPa, Gas | 0.01477
313.64 K, 102 kPa, Gas | 0.01508
313.67 K, 586 kPa, Gas | 0.01487
313.81 K, 200 kPa, Gas | 0.01496
313.88 K, 428 kPa, Gas | 0.01479
314.02 K, 325 kPa, Gas | 0.01482
314.08 K, 101 kPa, Gas | 0.01511
314.25 K, 200 kPa, Gas | 0.01496
314.56 K, 101 kPa, Gas | 0.01518
320.95 K, 10241 kPa, Liquid | 0.07419
320.95 K, 15330 kPa, Liquid | 0.07758
321 K, 1074 kPa, Liquid | 0.06717
321 K, 15328 kPa, Liquid | 0.07747
321 K, 15398 kPa, Liquid | 0.07709
321 K, 21637 kPa, Liquid | 0.08122
321.01 K, 5363 kPa, Liquid | 0.07064
321.01 K, 10238 kPa, Liquid | 0.07408
321.06 K, 1073 kPa, Liquid | 0.06692
321.06 K, 15400 kPa, Liquid | 0.07715
321.06 K, 21630 kPa, Liquid | 0.08106
321.08 K, 5360 kPa, Liquid | 0.07051
321.23 K, 96 kPa, Gas | 0.01565
321.24 K, 193 kPa, Gas | 0.01579
321.26 K, 302 kPa, Gas | 0.01598
321.31 K, 15324 kPa, Liquid | 0.07738
321.32 K, 10235 kPa, Liquid | 0.07406
321.34 K, 21627 kPa, Liquid | 0.08112
321.35 K, 1071 kPa, Liquid | 0.06648
321.36 K, 15404 kPa, Liquid | 0.0766
321.37 K, 5451 kPa, Liquid | 0.07074
321.39 K, 15326 kPa, Liquid | 0.07727
321.4 K, 5358 kPa, Liquid | 0.07043
321.42 K, 10233 kPa, Liquid | 0.07383
321.43 K, 1070 kPa, Liquid | 0.06675
321.43 K, 21621 kPa, Liquid | 0.08087
321.44 K, 5449 kPa, Liquid | 0.07064
321.45 K, 96 kPa, Gas | 0.01549
321.45 K, 15400 kPa, Liquid | 0.07716
321.46 K, 193 kPa, Gas | 0.01564
321.48 K, 301 kPa, Gas | 0.01576
321.5 K, 5355 kPa, Liquid | 0.07013
321.69 K, 96 kPa, Gas | 0.01537
321.69 K, 193 kPa, Gas | 0.01553
321.69 K, 301 kPa, Gas | 0.01571
321.73 K, 15326 kPa, Liquid | 0.07718
321.74 K, 21616 kPa, Liquid | 0.08084
321.76 K, 10233 kPa, Liquid | 0.07335
321.77 K, 1068 kPa, Liquid | 0.06659
321.77 K, 5449 kPa, Liquid | 0.07051
321.77 K, 15389 kPa, Liquid | 0.07714
321.85 K, 15325 kPa, Liquid | 0.077
321.85 K, 21616 kPa, Liquid | 0.08065
321.86 K, 5352 kPa, Liquid | 0.07024
321.87 K, 1067 kPa, Liquid | 0.06647
321.87 K, 5446 kPa, Liquid | 0.07039
321.88 K, 10232 kPa, Liquid | 0.07374
321.89 K, 15379 kPa, Liquid | 0.07673
321.93 K, 96 kPa, Gas | 0.01526
321.93 K, 301 kPa, Gas | 0.0156
321.94 K, 193 kPa, Gas | 0.01541
321.94 K, 862 kPa, Gas | 0.01585
321.98 K, 5353 kPa, Liquid | 0.07002
322.01 K, 717 kPa, Gas | 0.01564
322.18 K, 301 kPa, Gas | 0.01554
322.19 K, 193 kPa, Gas | 0.01534
322.19 K, 21613 kPa, Liquid | 0.0806
322.2 K, 15324 kPa, Liquid | 0.07701
322.23 K, 861 kPa, Gas | 0.01583
322.24 K, 5447 kPa, Liquid | 0.07031
322.25 K, 432 kPa, Gas | 0.01554
322.25 K, 1068 kPa, Liquid | 0.06595
322.25 K, 10235 kPa, Liquid | 0.0737
322.25 K, 15372 kPa, Liquid | 0.07646
322.27 K, 889 kPa, Gas | 0.01589
322.32 K, 715 kPa, Gas | 0.01567
322.32 K, 21607 kPa, Liquid | 0.08044
322.34 K, 302 kPa, Gas | 0.01575
322.34 K, 15322 kPa, Liquid | 0.0768
322.35 K, 5442 kPa, Liquid | 0.07009
322.37 K, 5357 kPa, Liquid | 0.07003
322.38 K, 1067 kPa, Liquid | 0.06625
322.4 K, 10234 kPa, Liquid | 0.07347
322.48 K, 588 kPa, Gas | 0.01563
322.52 K, 5368 kPa, Liquid | 0.06983
322.55 K, 859 kPa, Gas | 0.01582
322.57 K, 432 kPa, Gas | 0.01556
322.58 K, 886 kPa, Gas | 0.01586
322.65 K, 713 kPa, Gas | 0.01571
322.69 K, 301 kPa, Gas | 0.01554
322.7 K, 21605 kPa, Liquid | 0.08035
322.73 K, 15322 kPa, Liquid | 0.07671
322.75 K, 5443 kPa, Liquid | 0.07003
322.79 K, 1065 kPa, Liquid | 0.06618
322.8 K, 10233 kPa, Liquid | 0.07327
322.81 K, 193 kPa, Gas | 0.01577

Conditions | thermal conductivity [W/m/K]
313.15 K, Liquid | 0.06932

Source: the NIST ThermoML archive (doi:10.1021/je200811n)
